Results: patent US20240383893A1, “Hydroxamic Acid Compound Having ENPP1 Inhibitory Activity and Use Thereof” (Haihe Biopharma Co., Ltd., priority 2021, published 2024)

The compounds below were run against ENPP1 (hENPP1-ECD-His) (Homo sapiens (Human), UniProt P22413).
Chain of ENPP1 (hENPP1-ECD-His) (P22413 98-925): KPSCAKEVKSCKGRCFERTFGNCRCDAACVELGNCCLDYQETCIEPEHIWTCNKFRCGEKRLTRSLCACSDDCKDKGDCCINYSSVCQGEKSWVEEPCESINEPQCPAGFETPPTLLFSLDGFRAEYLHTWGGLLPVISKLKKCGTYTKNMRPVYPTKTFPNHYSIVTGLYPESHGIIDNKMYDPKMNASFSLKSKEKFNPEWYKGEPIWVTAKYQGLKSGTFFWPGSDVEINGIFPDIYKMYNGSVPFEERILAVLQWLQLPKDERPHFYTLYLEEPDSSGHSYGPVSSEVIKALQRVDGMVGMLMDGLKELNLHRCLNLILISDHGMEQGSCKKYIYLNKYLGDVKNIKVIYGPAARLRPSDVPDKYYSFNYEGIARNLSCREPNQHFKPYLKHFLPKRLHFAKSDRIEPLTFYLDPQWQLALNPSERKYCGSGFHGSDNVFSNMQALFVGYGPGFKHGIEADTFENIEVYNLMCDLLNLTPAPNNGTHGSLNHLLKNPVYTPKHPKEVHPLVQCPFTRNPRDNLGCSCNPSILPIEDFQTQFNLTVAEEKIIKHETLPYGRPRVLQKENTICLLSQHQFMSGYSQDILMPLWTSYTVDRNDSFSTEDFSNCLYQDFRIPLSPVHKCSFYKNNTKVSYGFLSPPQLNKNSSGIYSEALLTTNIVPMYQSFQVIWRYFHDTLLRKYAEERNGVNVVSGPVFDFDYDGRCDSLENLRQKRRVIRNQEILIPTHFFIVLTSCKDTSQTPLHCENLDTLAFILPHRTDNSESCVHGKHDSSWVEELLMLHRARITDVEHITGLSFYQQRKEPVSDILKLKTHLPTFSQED

Compound	IC50
COc1cc2ncnc(Nc3ccc(C(CC(C)C)C(=O)NO)cc3)c2cn1 (stereo not shown) [Compound 188]	4.6 nM
COc1ccc2c(Nc3ccc4c(c3)CCC4C(=O)NO)ccnc2n1 (stereo not shown) [Compound 51]	2.5 nM
Cn1ncc2ncnc(Nc3ccc(CC(=O)NO)cc3)c21 [Compound 29]	14 nM
COc1ccc2c(Oc3ccc(CC(=O)NO)cc3C)ccnc2n1 [Compound 21]	3.1 nM
Cc1ccc2c(Nc3ccc(CC(=O)NO)cc3)ncnc2n1 [Compound 60]	673 nM
COc1ccc2c(Cc3ccc(C4(C(=O)NO)CCOCC4)cc3)ccnc2n1 [Compound 171]	1.8 nM
O=C(Cc1ccc(Nc2ncnc3c2cnn3C2CC2)cc1)NO [Compound 34]	376 nM
COc1ccc2c(Nc3ncc(CC(=O)NO)cn3)ccnc2n1 [Compound 151]	70 nM
COc1ccc2nccc(Oc3ccc(C(C)(C)C(=O)NO)cc3)c2c1 [Compound 99]	63 nM
COc1ccc2c(Nc3cnn(C(C)(C)C(=O)NO)c3)ccnc2n1 [Compound 118]	1.5 nM
COc1ccc2c(Nc3ccc(C(C)C(=O)NO)c(F)c3)ccnc2n1 (stereo not shown) [Compound 61]	1.7 nM
COc1ccc2c(Oc3ccc(C(C(=O)NO)C4CCCC4)cc3)ccnc2n1 (stereo not shown) [Compound 170]	18 nM
COc1cnc2c(Oc3ccc(CC(=O)NO)cc3)ccnc2c1 [Compound 20]	324 nM
O=C(Cc1ccc(Nc2ncnc3nc(O)ccc23)cc1)NO [Compound 31]	20 nM
COc1cc(Nc2ncnc3c2cnn3C)ccc1C(C)(C)C(=O)NO [Compound 126]	21 nM
COc1ccc2c(Oc3ccc(N4CCC[C@H]4C(=O)NO)cc3)ccnc2n1 [Compound 196, (S)—N-hydroxy-1-(4-((7-methoxy-1,8-naphthylidin-4-yl)oxy)phenyl)pyrrolidin-2-formamide]	130 nM
COc1ccc2c(Oc3ccc(C4(C(=O)NO)CCN(C)CC4)cc3)ccnc2n1 [Compound 146]	13 nM
COc1ccc2c(Oc3ccc(C(CC(C)C)C(=O)NO)cc3)ccnc2n1 (stereo not shown) [Compound 132]	6.6 nM
COc1cc2nccc(Oc3ccc(C(C)(C)C(=O)NO)cc3)c2cn1 [Compound 97]	1.5 nM
COc1cc2nccc(Oc3ccc(CC(=O)NO)cc3)c2cn1 [Compound 19]	2.9 nM
CCn1ncc2c(Nc3ccc(CC(=O)NO)cc3)ccnc21 [Compound 49]	1.4 nM
COc1ccc2c(Oc3ccc(C(CC(C)C)C(=O)NO)c(F)c3)ccnc2n1 (stereo not shown) [Compound 201]	11 nM
COc1ccc2c(Oc3ccc(C(C)C(=O)NO)cc3F)ccnc2n1 (stereo not shown) [Compound 72]	2.2 nM

Compound	IC50
COc1ccc2c(Nc3cnn(C(C(=O)NO)C(C)C)c3)ccnc2n1 (stereo not shown) [Compound 167]	103 nM
COc1ccc2c(N[C@H]3CCN(C(C)(C)C(=O)NO)C3)ccnc2n1 [Compound 202]	3.3 nM
Cn1ncc2c(Nc3ccc(C(C)(C)C(=O)NO)cc3)ccnc21 [Compound 81]	1.9 nM
COc1ccc2c(Oc3c(F)cc(C4(C(=O)NO)CCOCC4)cc3F)ccnc2n1 [Compound 137]	2.6 nM
Cc1nn(C)c2nccc(Oc3ccc(C(C)(C)C(=O)NO)cc3)c12 [Compound 84]	6.1 nM
COc1cc2ncnc(Nc3ccc(C(C(=O)NO)C(C)C)cc3)c2cn1 (stereo not shown) [Compound 187]	27 nM
CCn1ncc2c(Nc3ccc(CC(=O)NO)c(OC)c3)ccnc21 [Compound 56]	2.3 nM
COc1cc2nccc(Nc3ccc(CC(=O)NO)c(F)c3)c2cn1 [Compound 189]	1.8 nM
COc1ccc2c(Oc3ccc4c(C(=O)NO)cccc4c3)ccnc2n1 [Compound 92]	169 nM
Cc1cc(Nc2ncnc3ccccc23)ccc1CC(=O)NO [Compound 24]	36 nM
COc1ccc2c(Oc3ccc([C@H](C(=O)NO)C4CCOCC4)c(F)c3)ccnc2n1 [Compound 206]	12 nM
COc1ccc2c(Nc3ccc(C4(C(=O)NO)CCOCC4)c(F)c3)ccnc2n1 [Compound 162]	3 nM
COc1ccc2c(NC3CCN(CC(=O)NO)C3)ccnc2n1 (stereo not shown) [Compound 143]	4.7 nM
COc1cc2nccc(Nc3ccc(C(C(=O)NO)C(C)C)cc3)c2cn1 (stereo not shown) [Compound 177]	7.9 nM
CCn1ncc2c(Oc3ccc(C4(C(=O)NO)CC4)cc3)ccnc21 [Compound 54]	1.6 nM
COc1ccc2c(Oc3ccc(C(C)C(=O)NO)cc3)ccnc2n1 (stereo not shown) [Compound 27]	2.1 nM
COc1cc2nccc(Nc3c(F)cc(C(C(=O)NO)C(C)C)cc3F)c2cn1 (stereo not shown) [Compound 185]	3.6 nM
COc1ccc2c(NC3CCN(C(C)(C)C(=O)NO)CC3)ccnc2n1 [Compound 117]	2.1 nM
COc1ccc2c(Oc3ccc(C4(C(=O)NO)CCCOCC4)cc3)ccnc2n1 (stereo not shown) [Compound 175]	1.9 nM
COc1ccc2c(Nc3ccc(CC(=O)NO)cc3)ncnc2c1 [Compound 10]	2.7 nM
COc1ccc2c(OC3CCN(C(C)(C)C(=O)NO)CC3)ccnc2n1 [Compound 116]	21 nM
COc1ccc2c(Nc3cc(F)c(C(C)C(=O)NO)cc3F)ccnc2n1 (stereo not shown) [Compound 47]	4.5 nM
COc1ccc2c(N(C)c3ccc(C(C)(C)C(=O)NO)cc3)ccnc2n1 [Compound 114]	162 nM

Compound	IC50
COc1ccc2c(Nc3cc(F)c(C(C)C(=O)NO)c(F)c3)ccnc2n1 (stereo not shown) [Compound 48]	2.7 nM
COc1ccc2c(Oc3ccc(C(C(=O)NO)C(C)C)c(F)c3)ccnc2n1 (stereo not shown) [Compound 150]	7.2 nM
Cn1ncc2c(Oc3ccc(C(C)(C)C(=O)NO)cc3)ccnc21 [Compound 41]	3 nM
COc1ccc2c(Nc3ccc(C4(C(=O)NO)CCOCC4)cc3)ccnc2c1 [Compound 164]	3.4 nM
Cn1ncc2c(Nc3ccc(CC(=O)NO)cc3)ncnc21 [Compound 15]	19 nM
CCn1ncc2c(Oc3cccc(C(=O)NO)c3)ccnc21 [Compound 76]	289 nM
CCn1ncc2c(Oc3ccc(C(C)(C)C(=O)NO)cc3)ccnc21 [Compound 53]	2.9 nM
O=C(Cc1ccc(Nc2ncnc3c2cnn3CC(F)(F)F)cc1)NO [Compound 57]	513 nM
Cc1cc(Oc2ccc(C(C)(C)C(=O)NO)cc2)c2cnn(C)c2n1 [Compound 58]	41 nM
COc1ccc2c(Nc3ccc(C(C(=O)NO)C(C)C)cc3)ccnc2n1 (stereo not shown) [Compound 161]	16 nM
COc1ccc2c(Oc3ccc(C(C)(C(=O)NO)C4CCOCC4)cc3)ccnc2n1 (stereo not shown) [Compound 172]	3.1 nM
COc1ccc2c(Nc3ccc(C4(C(=O)NO)CCOCC4)cc3)c(C#N)cnc2c1 [Compound 180]	1.6 nM
O=C(Cc1ccc(Nc2ncnc3cnccc23)cc1)NO [Compound 35]	49 nM
COc1ccc2c(Oc3ccc4c(c3)CCCC4C(=O)NO)ccnc2n1 (stereo not shown) [Compound 145]	4.2 nM
COc1ccc2c(Oc3ccc(CC(=O)NO)cc3)c(C#N)cnc2c1 [Compound 14]	1.2 nM
CC(C(=O)NO)c1ccc(Oc2ccnc3c2cnn3C)cc1 (stereo not shown) [Compound 36]	24 nM
COc1cccc2c(Oc3ccc(CC(=O)NO)cc3)c(C#N)cnc12 [Compound 5]	150 nM
COc1ccc2c(Oc3ccc(CC(=O)NO)cc3F)ccnc2n1 [Compound 26]	1.3 nM
CCn1ncc2c(Nc3ccc(C(C)(C)C(=O)NO)cc3)ccnc21 [Compound 82]	1.7 nM
COc1ccc2c(Nc3ccc(CC(=O)NO)cc3)nc(C)nc2n1 [Compound 37]	2.4 nM
COc1cc2nccc(Nc3ccc(CC(=O)NO)cc3)c2cc1OC [Example A-1, reference compound]	89 nM
COc1cc2nccc(Nc3ccc(C(CC(C)C)C(=O)NO)cc3)c2cn1 (stereo not shown) [Compound 179]	1 nM
COc1cc2nccc(Nc3ccc(CC(=O)NO)cc3F)c2cn1 [Compound 190]	3.9 nM

Compound	IC50
COc1ccc2c(Nc3cc(F)c(CC(=O)NO)c(F)c3)ccnc2n1 [Compound 70]	1.7 nM
COc1ccc2c(Oc3ccc(CC(=O)NO)cc3)ncnc2c1 [Compound 8]	2.17 nM
Cn1ncc2c(Oc3ccc(C4(C(=O)NO)CC4)cc3)ccnc21 [Compound 80]	1.9 nM
CCOc1ccc2c(Oc3ccc(CC(=O)NO)cc3)ccnc2c1 [Compound 98]	125 nM
CCn1ncc2c(Nc3ccc(CC(=O)NO)cc3F)ccnc21 [Compound 192]	1.4 nM
COc1ccc2c(Oc3ccc4c(c3)CCCC4(C)C(=O)NO)ccnc2n1 (stereo not shown) [Compound 203]	1.8 nM
COc1ccc2c(Oc3cccc(CC(=O)NO)c3)ccnc2n1 [Compound 75]	112 nM
COc1ccc2c(Nc3ccc(C(CC(C)C)C(=O)NO)cc3)ccnc2n1 (stereo not shown) [Compound 182]	1.7 nM
Cc1nn(C)c2nccc(Nc3ccc(CC(=O)NO)cc3)c12 [Compound 55]	4.3 nM
COc1ccc2c(Nc3ccc(CC(=O)NO)cc3)ccnc2c1 [Compound 4]	2.62 nM
COc1ccc2c(Oc3ccc(C4(C(=O)NO)CCOCC4)cc3Cl)ccnc2n1 [Compound 138]	6 nM
COc1ccc2c(Nc3ccc(C(C)(C)C(=O)NO)cc3)ccnc2n1 [Compound 69]	1.9 nM
COc1ccc2c(NC3CCC(CC(=O)NO)C3)ccnc2n1 (stereo not shown) [Compound 142]	13 nM
COc1ccc2c(Oc3ccc(C(C)(C)C(=O)NO)c(Cl)c3)ccnc2n1 [Compound 103]	21 nM
COc1ccc2c(Cc3ccc(C4(C(=O)NO)CCCC4)cc3)ccnc2n1 [Compound 141, N-hydroxy-1-(4-((7-methoxy-1,8-naphthylidin-4-yl)methyl)phenyl)cyclopentane-1-formamide]	1.4 nM
COc1ccc2c(Oc3ccc(C(C)(C)C(=O)NO)cc3)cc(C)nc2n1 [Compound 67]	1.7 nM
Cn1ncc2c(Nc3ccc(C4(C(=O)NO)CCOCC4)cc3)ncnc21 [Compound 207]	9.3 nM
COc1ccc2c(N3CCc4cc(C5(C(=O)NO)CCOCC5)ccc43)ccnc2n1 [Compound 158]	9.9 nM
COc1ccc2c(Nc3ccc(CC(=O)NO)cn3)ccnc2n1 [Compound 45]	3.1 nM
CCn1ncc2c(Nc3ccc(CC(=O)NO)cc3)ncnc21 [Compound 33]	2.4 nM
COc1ccc2c(Oc3cccc(C(=O)NO)c3)ccnc2n1 [Compound 63]	212 nM
COc1ccc2c(C(C)c3ccc(C(C)(C)C(=O)NO)cc3)ccnc2n1 (stereo not shown) [Compound 113]	219 nM
